Measured values from US9962403B2, “Formulation drug of sodium ion and calcium ion for treating cancer, tumor and nonmalignancy” (priority 2011, dated 2018).
Like-named read-outs stand apart in the source and are kept apart here.

Experiments:
[1] = for toxicity of high concentration solutions injected intramuscularly: paralysis of legs, cardiovascular and pulmonary failure, death
Description: First, potential roles of Na^+, K^+, Ca^2+ and Mg^2+ in treatment of tumor and cancer were tested. In vivo experiments in BALB/c mice were performed. High concentration solutions of Na^+, K^+, Ca^2+ and Mg^2+ were injected intramuscularly. […] Experiments were focused on high concentrations of Na^+ and Ca^2+ solutions.
At the beginning, in vivo toxicity of high concentrations of Na^+, Ca^2+, K^+, and Mg^2+ in BALB/c mice was examined.
BALB/c mice were housed and inbreeded in the contracted university animal facilities that was in accordance with the NIH regulation. Body weight of the BALB/c mice at the experiment was 30±g. The toxicity test was performed using intramuscular injection with 0.2ml of 35% NaCl, 35% CaCl2, 34% KCl or 35% MgCl2 in a mouse, respectively.
In total, 20 BALB/c mice (10 males and 10 females) were randomly divided into 5 groups, with 4 mice in each group.

[2] = test system: MCA207 mouse sarcoma, MC38 mouse colorectal cancer and B16F1 mouse melanoma; conditions: for occurrence of tumor necrosis: high concentrations, evaluated 24, 48 and 72 hours after treatment; for average necrosis of all treated tumors: 48 hours
Description: Three animal tumor models of MCA207 mouse sarcoma, MC38 mouse colorectal cancer and B16F1 mouse melanoma were established in C57BL6 mice. The treatment of intratumoral injection started when tumors reached 8mm×8mm in size.
Thirty-six C57BL6 tumor mice were randomly divided into three groups according to tumor types (12 animals in each group). Then, animals in each group were further divided into 4 subgroups (3 tumor mice in each subgroup). Tumor animals in subgroup-1, as the control, were treated by intratumoral injection with 0.1ml of normal saline. Tumor animals in subgroup-2 were treated by intratumoral injection with 0.1ml of various concentrations of sodium chloride solution.
Twenty-four, 48 and 72 hours after treatment, experimental results were evaluated by measuring the dimension of necrotic area of the treated tumors using a ruler.

[3] = test system: 18 types of human cancer cell lines; assay: Ex vivo killing test in tissue culture (Trypan blue exclusion or flow cytometry); type: cell-based
Description: Tumor cells were cultured in DMEM or RPMI1640 medium supplemented with 10% fetal bovine serum (FCS). The medium in the control group was free of the “medicinal ion bomb” solution. […] Mortality of cancer cells was evaluated by Trypan blue exclusion test or flow cytometry.
The role of the “medicinal ion bomb” in killing cancer cells was tested in tissue culture. Cancer cells were seeded in Petri dish using DMEM or RPMI1640 medium supplemented with 10% FCS. Each type of cancer cell line was prepared at 2×10^6 cells/ml in a 5ml plastic tube. […] Three to five minutes later, 0.5% Trypan Blue was added and mixed with the cell suspension for 2 minutes. The number of dead cancer cells was counted under an inverted microscope. Selected samples of treated cancer cell suspension for flow cytometer were prepared in phosphate-buffered saline (PBS) and mortality of cells was assayed using flow cytometer (Beckman Coulter Inc., CA).

[4] = test system: MCF7 human breast cancer cells; assay: Fluorescent labeled Na+/Ca2+ probe technique, influx and death of cancer cells; type: cell-based
Description: Fluorescent labeled ion probe technique was used in study of the influx of Na^+ and Ca^2+ from the extracellular fluid into intracellular fluid of cancer cells.

[5] = test system: multiple glomus tumors; conditions: 23.4% solution; 4 sessions of intralumenal injection in 6 months; one patient; cited from earlier work
[6] = test system: liver tumor; conditions: 36.5% hypertonic saline; cited from earlier work
[7] = test system: tumors; assay: Earlier intratumoral injection of arsenic; type: in vivo, mice
Description: An occasional opportunity sparked this invention. […] One day, the inventor went shopping in a Chinese supermarket and bought a dozen salted duck eggs. On the way back home, […] wondered why these salted duck eggs could be preserved at room temperature for years without rotting. The answer is that proteins and yolks in salted duck eggs are coagulated or clotted by high concentration of salt (sodium chloride), in particular by high concentration of sodium ions. The inventor linked this phenomenon to cell biology, cell physiology, membrane potential, ion science and cancer treatment, and presumed that high concentrations of sodium chloride might coagulate or clot proteins in cancer cells like what occurs in salted duck eggs.

[8] = 0.2ml of 35% NaCl, 35% CaCl2, 34% KCl or 35% MgCl2, mouse 30 g

In the case of [Cl-].[Cl-].[Mg+2] [MgCl2], the “outcome of animals after intramuscular injection” value (from here on “outcome of animals”) ([1]; mouse, in vivo) is reported as “not well absorbed” and the “toxicity of high concentration solutions injected intramuscularly” value [1] is reported as “toxic”.
With [Cl-].[K+] [KCl] the “outcome of animals” value [1, 8] was “died from cardiopulmonary failure 3 hours after treatment” and the “toxicity of high concentration solutions injected intramuscularly” value [1] was “toxic”.
For [Ca+2].[Cl-].[Cl-] [calcium chloride solution, calcium chloride], the “maximal effective treatment concentration” value ([2]; Ca2+ alone or in combination, intratumoral injection, room temperature) was 6.0 M, the “local toxicity at the injection site” value ([2]; high concentration of calcium chloride solution) was “toxic that causes unhealed wound at the injection site” and the “occurrence of tumor necrosis” value [2] was “necrosis occurred in all tumors”. For the same compound, the “necrosis of treated tumors” value ([2]; single intratumoral injection 0.1 ml of 250 mM, 1.0 M, 1.5 M, 2.0 M and 3.0 M, 48 hours posttreatment) was “coagulating necrosis of all treated tumors”, the “effect of tissue culture medium containing 250 mM of Ca2+” value [3] was “induced sickness, apoptosis and death” and the “outcome of animals” value ([1]; 0.2ml of 17.5% CaCl2) was “survived the experiment”. The “outcome of animals” value [1, 8] was “died in 3 hours after treatment” and the “effect of Ca2+ solutions on cancer cells” value ([4]; 250 mM, 1.0 M, 1.5 M, 2.0 M and 3.0 M, Ca2+ probe fluorescence microscopy) was “immediate sickness or death of cancer cells”.
With [Cl-].[Na+] [sodium chloride solution, sodium chloride] the “average necrosis of all treated tumors” value ([2]; 3.0 M solution) was 30%±10, the “minimal effective treatment concentration” value ([2]; Na+ alone or in combination, intratumoral injection, room temperature, listed as Na^+ solution) was 2.0 M and the “occurrence of tumor necrosis” value [2] was “necrosis occurred in all tumors”. For the same compound, the “average necrosis of all treated tumors” value ([2]; single intratumoral injection 0.1 mL of 5.0479 M solution) was 90%± 5, the “average necrosis of all treated tumors” value ([2]; single intratumoral injection 0.1 mL of 5.0479 M solution, listed as Na^+ solution) was 90%±5 and the “outcome of animals” value [1, 8] was “survived the experiment”. The “time to kill MCF7 cells” value ([4]; 5.0479 M of Na+ solution alone) was 20 ± 4 s, the treatment outcome [5] was “did not result in successful treatment” and the treatment outcome [6] was “none of the tumors were successfully treated”.
For [AsH3] [arsenic], the treatment outcome [7] was “did not work well”.
